Where a name gives a salt, the structure may show the parent alone.
Tested on: modified version of the GPR119 receptor (94% identity to human receptor)
Assay: cAMP production assay (LANCE cAMP kit, TR-FRET) in HEK-293 cells
Type: cell-based
Conditions: for cAMP production in HEK-293 cells: HEK-293 cells stably expressing modified GPR119, test compounds 0.2 nM to 10 μM, one-hour incubation; for Fold over baseline: increase in cAMP relative to basal levels, agonist activity if 1.5-fold or greater
Outline: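 Agonist activity meant a 1.5-fold or greater cAMP rise over basal, with levels interpolated from a standard curve after TR-FRET competition read-out. HEK-293 cells with tetracycline-inducible modified GPR119 (1 μg/mL doxycycline overnight) were incubated one hour at ambient temperature with 0.2 nM to 10 μM compound, 0.5% DMSO.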

Row | Structure (SMILES) | cAMP production in HEK-293 cells [nmol] | Fold over baseline
1 | CC(C)c1nsc(N2CCC(N3CCC(Oc4ccc(C(=O)N(C)CCN(C)C)cc4F)C3=O)CC2)n1 (stereo not shown) [Example 78, N-(2-(dimethylamino)ethyl)-3-fluoro-4-(1-(1-(3-isopropyl-1,2,4-thiadiazol-5-yl)piperidin-4-yl)-2-oxopyrrolidin-3-yloxy)-N-methylbenzamide] | 5.0 | 1.6
2 | CC(C)c1nsc(N2CCC(N3CCC(Oc4ccc(C(=O)N(C)CCO)cc4F)C3=O)CC2)n1 (stereo not shown) [Example 79, 3-fluoro-N-(2-hydroxyethyl)-4-(1-(1-(3 isopropyl-1,2,4-thiadiazol-5-yl)piperidin-4-yl)-2-oxopyrrolidin-3-yloxy)-N-methylbenzamide] | 19.0 | 3.2
3 | CCS(=O)(=O)c1ccc(NC2CCN(C3CCN(c4nc(C(C)C)ns4)CC3)C2=O)cc1C (stereo not shown) [Example 19, 3-(4-(Ethylsulfonyl)-3-methylphenylamino)-1-(1-(3-isopropyl-1,2,4-thiadiazol-5-yl)piperidin-4-yl)pyrrolidin-2-one] | 16.4 | 2.4
4 | CCS(=O)(=O)c1ccc(OC2CCN(C3CCN(c4nc(C)ns4)CC3)C2=O)c(F)c1 (stereo not shown) [Example 66, 3-(4-(ethylsulfonyl)-2-fluorophenoxy)-1-(1-(3-methyl-1,2,4-thiadiazol-5-yl)piperidin-4-yl)pyrrolidin-2-one] | 8.6 | 1.8
5 | CC(C)Cc1nsc(N2CCC(N3CC[C@H](Nc4ccc(S(C)(=O)=O)cc4F)C3=O)CC2)n1 [Example 22, (S)-3-(2-fluoro-4-(methylsulfonyl)phenylamino)-1-(1-(3-isobutyl-1,2,4-thiadiazol-5-yl)piperidin-4-yl)pyrrolidin-2-one trifluoroacetate] | 22.1 | 7.6

— patent US20140256756A1, “PIPERIDINYL-SUBSTITUTED LACTAMS AS GPR119 MODULATORS” (Array BioPharma Inc., priority 2011, published 2014)
